Experimental data as given in PMC10299128, “The Parallel Structure–Activity Relationship Screening of Three Compounds Identifies the Common Agonist Pharmacophore of Pyrrolidine Bis-Cyclic Guanidine Melanocortin-3 Receptor (MC3R) Small-Molecule Ligands” (International Journal of Molecular Sciences, 2023).
Read-outs that look alike come from different tables or passages of the source.

What was measured:
[1] = target: mMC3R (Mus musculus, UniProt P33033); experiment: AlphaScreen cAMP agonist assay, HEK293 cells stably expressing mMC3R; conditions: for mMC3R partial agonist efficacy bin: sigmoidal curve, efficacy <90% of NDP-MSH
Sequence of mMC3R (P33033 whole entry): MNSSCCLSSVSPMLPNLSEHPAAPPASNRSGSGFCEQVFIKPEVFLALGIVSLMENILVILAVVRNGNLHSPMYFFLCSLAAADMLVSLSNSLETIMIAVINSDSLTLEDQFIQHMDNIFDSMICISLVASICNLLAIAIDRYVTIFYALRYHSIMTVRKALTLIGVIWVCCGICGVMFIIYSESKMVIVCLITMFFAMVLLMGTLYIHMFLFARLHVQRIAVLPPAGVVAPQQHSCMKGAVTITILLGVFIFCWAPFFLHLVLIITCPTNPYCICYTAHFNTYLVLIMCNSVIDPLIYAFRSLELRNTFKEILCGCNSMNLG

[2] = target: mMC1R (Mus musculus, UniProt Q01727); experiment: AlphaScreen cAMP agonist assay, HEK293 cells stably expressing mMC1R; conditions: for mMC1R partial agonist efficacy bin: sigmoidal curve, efficacy <90% of NDP-MSH
Sequence of mMC1R (Q01727 whole entry): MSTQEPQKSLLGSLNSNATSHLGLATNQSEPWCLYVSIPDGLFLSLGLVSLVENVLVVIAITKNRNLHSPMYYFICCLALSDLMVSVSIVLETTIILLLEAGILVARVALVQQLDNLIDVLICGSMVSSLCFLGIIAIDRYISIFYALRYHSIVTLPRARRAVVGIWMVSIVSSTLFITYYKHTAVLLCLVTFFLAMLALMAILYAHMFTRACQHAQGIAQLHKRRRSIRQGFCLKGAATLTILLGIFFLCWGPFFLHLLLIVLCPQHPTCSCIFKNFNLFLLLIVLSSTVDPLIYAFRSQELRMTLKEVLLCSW

[3] = target: mMC5R (Mus musculus, UniProt P41149); experiment: AlphaScreen cAMP agonist assay, HEK293 cells stably expressing mMC5R; conditions: for mMC5R percent maximal stimulatory response (compared to NDP-MSH): at 1 mM, not enough stimulation to determine EC50; for mMC5R partial agonist efficacy bin: sigmoidal curve, efficacy <90% of NDP-MSH; for mMC5R agonist efficacy (in words): relative to NDP-MSH, full = >90% receptor activation
Sequence of mMC5R (P41149 whole entry): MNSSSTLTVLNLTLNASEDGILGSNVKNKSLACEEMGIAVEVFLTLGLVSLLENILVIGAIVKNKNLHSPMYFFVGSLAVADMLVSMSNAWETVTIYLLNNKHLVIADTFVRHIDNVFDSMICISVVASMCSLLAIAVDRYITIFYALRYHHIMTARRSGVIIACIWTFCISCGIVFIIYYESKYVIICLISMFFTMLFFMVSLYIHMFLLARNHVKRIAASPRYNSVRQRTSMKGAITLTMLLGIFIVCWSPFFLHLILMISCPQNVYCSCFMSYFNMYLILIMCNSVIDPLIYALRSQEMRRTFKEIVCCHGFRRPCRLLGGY

[4] = target: mMC4R (Mus musculus, UniProt P56450); experiment: AlphaScreen cAMP agonist assay, HEK293 cells stably expressing mMC4R; conditions: for mMC4R partial agonist efficacy bin: sigmoidal curve, efficacy <90% of NDP-MSH
Sequence of mMC4R (P56450 whole entry): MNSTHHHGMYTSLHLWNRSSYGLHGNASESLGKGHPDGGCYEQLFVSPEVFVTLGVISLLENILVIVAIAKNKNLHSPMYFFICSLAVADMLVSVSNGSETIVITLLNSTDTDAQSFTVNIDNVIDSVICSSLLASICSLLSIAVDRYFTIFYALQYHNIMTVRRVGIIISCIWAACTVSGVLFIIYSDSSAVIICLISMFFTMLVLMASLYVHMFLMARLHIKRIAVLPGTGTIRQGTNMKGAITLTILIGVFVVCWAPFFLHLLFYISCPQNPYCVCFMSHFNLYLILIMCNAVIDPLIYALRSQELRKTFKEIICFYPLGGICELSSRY

[5] = at 1 mM, not enough stimulation to determine EC50

| Compound | EC50 [1] | EC50 [2] | mMC1R partial agonist efficacy bin [2] | EC50 [3] | EC50 [4] | mMC4R percent maximal stimulatory response (compared to NDP-MSH) [4, 5] | further results |
| --- | --- | --- | --- | --- | --- | --- | --- |
| CCN1C(=N)N([C@H](Cc2ccccc2)CN2CCC[C@H]2CN2C(=N)NC[C@H]2CC(C)C)C[C@H]1[C@H](C)O [Compound 2718.004] | > 1000 µM | 20.6 µM | A (A (20–50% receptor activation)) | > 1000 µM | > 1 mM | – | – |
| CC(C)C[C@@H]1CNC(=N)N1C[C@@H]1CCCN1C[C@@H](Cc1ccccc1)N1CCNC1=N [Compound 2718.006] | > 1000 µM | – | – | – | – | 20% @ 1 mM | mMC1R percent maximal stimulatory response (compared to NDP-MSH) [2, 5]: 40% @ 1 mM; mMC5R percent maximal stimulatory response (compared to NDP-MSH) [3]: 30% @ 1 mM |
| CCN1C(=N)N([C@H](CC2CCCCC2)CN2CCC[C@H]2CN2C(=N)NC[C@H]2CC(C)C)C[C@H]1[C@H](C)O [Compound 2718.010] | > 1000 µM | 5 ± 1 µM | B (B (51–90% receptor activation)) | 45.5 µM | – | 20% @ 1 mM | mMC5R partial agonist efficacy bin [3]: A (A (20–50% receptor activation)) |
| CC(C)C[C@@H]1CNC(=N)N1C[C@@H]1CCCN1C[C@@H](CC1CCCCC1)N1C[C@@H]([C@H](C)O)NC1=N [Compound 2718.011] | > 1000 µM | 15 µM | B (B (51–90% receptor activation)) | – | > 1 mM | – | – |
| CC(C)C[C@@H]1CNC(=N)N1C[C@@H]1CCCN1C[C@@H](CC1CCCCC1)N1CCNC1=N [Compound 2718.012] | > 1000 µM | 15 µM | B (B (51–90% receptor activation)) | – | > 1 mM | – | – |
| CCC[C@@H]1CN([C@H](CC2CCCCC2)CN2CCC[C@H]2CN2C(=N)NC[C@H]2C(C)C)C(=N)N1CC [Compound 2718.014] | – | 9 ± 3 µM | B (B (51–90% receptor activation)) | – | > 1 mM | – | mMC3R percent maximal stimulatory response (compared to NDP-MSH) [1, 5]: 20% @ 1 mM; mMC5R percent maximal stimulatory response (compared to NDP-MSH) [3]: 50% @ 1 mM |
| CCC[C@@H]1CN([C@H](CC2CCCCC2)CN2CCC[C@H]2CN2C(=N)NC[C@H]2C(C)C)C(=N)N1 [Compound 2718.015] | > 1000 µM | 11 µM | B (B (51–90% receptor activation)) | – | > 1 mM | – | mMC5R percent maximal stimulatory response (compared to NDP-MSH) [3]: 35% @ 1 mM |
| CC(C)[C@@H]1CNC(=N)N1C[C@@H]1CCCN1C[C@@H](CC1CCCCC1)N1CCNC1=N [Compound 2718.016] | > 1000 µM | 30 µM | B (B (51–90% receptor activation)) | – | – | – | – |
| CCCCC1CNC(=N)N1CC1CCC(C(C)(C)C)CC1 (stereo not drawn) [Compound 2718.021] | – | – | – | – | – | – | mMC3R percent maximal stimulatory response (compared to NDP-MSH) ([1]; at 100 µM): 50% @ 100 µM; mMC1R percent maximal stimulatory response (compared to NDP-MSH) ([2]; at 100 µM): 80% @ 100 µM; EC50 ([3]; read-out: mMC5R EC50, agonist, mean ± SEM, at least three independent experiments, >1,000,000 = no agonist activity up to 1 mM): 17 µM; fold decreased mMC5R agonist potency ([3]; relative to 2718.003): 14 fold; mMC5R agonist efficacy (in words) [3]: fully activate; mMC4R percent maximal stimulatory response (compared to NDP-MSH) ([4]; at 100 µM): 50% @ 100 µM |
| CC(C)C[C@@H]1CNC(=N)N1C[C@@H]1CCCN1C[C@@H](Cc1ccccc1)N1C[C@H]([C@@H](C)O)N(CC2CCC(C(C)(C)C)CC2)C1=N (stereo partly drawn) [Compound 2718.030] | – | 4 ± 2 µM | B (B (51–90% receptor activation)) | 5 ± 2 µM | – | 60% @ 1 mM | mMC3R percent maximal stimulatory response (compared to NDP-MSH) [1, 5]: 50% @ 1 mM; mMC5R partial agonist efficacy bin [3]: B (B (51–90% receptor activation)) |
| CC(C)CC1CNC(=N)N1CC1CCCN1CC(Cc1ccc2ccccc2c1)N1CC(C(C)O)N(CC2CCC(C(C)(C)C)CC2)C1=N (stereo not drawn) [Compound 2718.055] | 7 ± 3 µM | 1 ± 0.2 µM | – | 8 ± 2 µM | – | – | mMC3R partial agonist efficacy bin [1]: B (B (51–90% receptor activation)) |
| CC(C)CC1CNC(=N)N1CC1CCCN1CC(Cc1c[nH]c2ccccc12)N1CC(C(C)O)N(CC2CCC(C(C)(C)C)CC2)C1=N (stereo not drawn) [Compound 2718.056] | – | 6 ± 3 µM | B (B (51–90% receptor activation)) | 14 µM | – | – | fold decreased mMC5R agonist potency ([3]; relative to 2718.002): 50 fold |
| CC(C)CC1CNC(=N)N1CC1CCCN1CC(Cc1ccc(O)cc1)N1CC(C(C)O)N(CC2CCC(C(C)(C)C)CC2)C1=N (stereo not drawn) [Compound 2718.057] | 11 µM | 0.5 ± 0.1 µM | – | 6 ± 2 µM | – | – | mMC3R partial agonist efficacy bin [1]: B (B (51–90% receptor activation)); mMC5R partial agonist efficacy bin [3]: B (B (51–90% receptor activation)) |

Continued, in another order:

| EC50 [1] | EC50 [2] | mMC1R partial agonist efficacy bin [2] | EC50 [3] | EC50 [4] | mMC4R percent maximal stimulatory response (compared to NDP-MSH) [4, 5] | Compound | further results |
| --- | --- | --- | --- | --- | --- | --- | --- |
| – | – | – | 140 µM | – | 55% @ 1 mM | CC(O)C1CNC(=N)N1CC1CCC(C(C)(C)C)CC1 (stereo not drawn) [Compound 2718.020] | mMC3R percent maximal stimulatory response (compared to NDP-MSH) [1, 5]: 70% @ 1 mM; mMC1R percent maximal stimulatory response (compared to NDP-MSH) [2, 5]: 70% @ 1 mM; mMC5R agonist efficacy (in words) [3]: fully activate |
| – | – | – | – | 0.04 mM | – | CC(C)C[C@@H]1CNC(=N)N1C[C@@H]1CCCN1CCN1C[C@@H]([C@H](C)O)N(CC2CCC(C(C)(C)C)CC2)C1=N (stereo partly drawn) [Compound 2718.023] | mMC3R percent maximal stimulatory response (compared to NDP-MSH) [1, 5]: 30% @ 1 mM; mMC1R percent maximal stimulatory response (compared to NDP-MSH) [2, 5]: 85% @ 1 mM; mMC5R percent maximal stimulatory response (compared to NDP-MSH) [3]: 80% @ 1 mM; mMC4R partial agonist efficacy bin [4]: A (A (20–50% receptor activation)) |
| – | 10 µM | B (B (51–90% receptor activation)) | 19 µM | – | 35% @ 1 mM | CCC[C@@H]1CN(CCN2CCC[C@H]2CN2C(=N)NC[C@H]2C(C)C)C(=N)N1CC1CCC(C(C)(C)C)CC1 (stereo partly drawn) [Compound 2718.028] | mMC3R percent maximal stimulatory response (compared to NDP-MSH) [1, 5]: 35% @ 1 mM; mMC5R partial agonist efficacy bin [3]: B (B (51–90% receptor activation)) |
| – | 2.3 ± 0.9 µM | – | – | – | 55% @ 1 mM | CC(C)C[C@@H]1CNC(=N)N1C[C@@H]1CCCN1C[C@H](Cc1ccccc1)N1C[C@@H]([C@H](C)O)N(CC2CCC(C(C)(C)C)CC2)C1=N (stereo partly drawn) [Compound 2718.031] | mMC3R percent maximal stimulatory response (compared to NDP-MSH) [1, 5]: 55% @ 1 mM; fold decreased mMC1R agonist potency ([2]; relative to 2718.001): 7 fold; mMC5R percent maximal stimulatory response (compared to NDP-MSH) [3]: 70% @ 1 mM |
| 1.5 ± 0.4 µM | 0.4 ± 0.06 µM | – | 0.6 ± 0.2 µM | – | 55% @ 1 mM | CC(C)C[C@@H]1CNC(=N)N1C[C@H]1CCCN1C[C@@H](Cc1ccccc1)N1C[C@@H]([C@H](C)O)N(CC2CCC(C(C)(C)C)CC2)C1=N (stereo partly drawn) [Compound 2718.032] | mMC3R partial agonist efficacy bin [1]: B (B (51–90% receptor activation)) |
| 3.8 ± 0.6 µM | 0.38 ± 0.04 µM | – | 0.9 ± 0.3 µM | – | 60% @ 1 mM | CC(C)C[C@H]1CNC(=N)N1C[C@@H]1CCCN1C[C@@H](Cc1ccccc1)N1C[C@@H]([C@H](C)O)N(CC2CCC(C(C)(C)C)CC2)C1=N (stereo partly drawn) [Compound 2718.033] | mMC3R partial agonist efficacy bin [1]: B (B (51–90% receptor activation)) |
| – | 0.87 ± 0.07 µM | – | 0.45 ± 0.03 µM | 0.0031 ± 0.0002 mM | – | CC(C)C[C@@H]1CNC(=N)N1C[C@H]1CCCN1C[C@@H](CC1CCCCC1)N1C[C@@H]([C@H](C)O)N(CC2CCC(C(C)(C)C)CC2)C1=N (stereo partly drawn) [Compound 2718.047] | mMC4R partial agonist efficacy bin [4]: B (B (51–90% receptor activation)) |
| 2.9 ± 0.2 µM | 0.39 ± 0.03 µM | – | 0.65 ± 0.08 µM | – | – | CC(C)C[C@H]1CNC(=N)N1C[C@@H]1CCCN1C[C@@H](CC1CCCCC1)N1C[C@@H]([C@H](C)O)N(CC2CCC(C(C)(C)C)CC2)C1=N (stereo partly drawn) [Compound 2718.048] | mMC3R partial agonist efficacy bin [1]: B (B (51–90% receptor activation)) |
| – | 8 ± 2 µM | B (B (51–90% receptor activation)) | 2.8 ± 0.1 µM | – | – | CC(C)C[C@H]1CNC(=N)N1C[C@H]1CCCN1C[C@H](CC1CCCCC1)N1C[C@H]([C@@H](C)O)N(CC2CCC(C(C)(C)C)CC2)C1=N (stereo partly drawn) [Compound 2718.049] | fold decreased mMC5R agonist potency ([3]; relative to 2718.002): 10 fold |
| 11 µM | – | – | 6 ± 1 µM | – | – | CC(C)CC1CNC(=N)N1CC1CCCN1CC(C1CCCCC1)N1CC(C(C)O)N(CC2CCC(C(C)(C)C)CC2)C1=N (stereo not drawn) [Compound 2718.059] | mMC3R partial agonist efficacy bin [1]: A (A (20–50% receptor activation)); fold decreased mMC5R agonist potency ([3]; relative to 2718.002): 20 fold |
